Experimental data reported in publication PMC12841663, “Antiprotozoal Potential of Cultivated Geranium macrorrhizum Against Giardia duodenalis, Trichomonas gallinae and Leishmania infantum” (International Journal of Molecular Sciences, 2026).
Values after ≈ are worked out from the molar mass of the structure shown.

Experiments:
[1] = test system: L. infantum promastigotes; test: Anti-Leishmania activity assay on promastigotes (MTT viability); format: cell-based; conditions: pure compounds
Experimental: Anti-Leishmania (AL) activity was assessed on L. infantum promastigotes (MCAN/ES/98/LLM-722), kindly provided by Dr. J.M. Requena from CBM-CSIC, as well as on L. infantum (M/CAN/ES/96/BCN150 zymodeme MON-1), strain isolated from a dog with active visceral leishmaniasis. L. infantum promastigotes (MCAN/ES/98/LLM-722) were cultured in RPMI medium supplemented with 15% FBS and 10 μg/mL of hemin (Acros Organics, Madrid, Spain), grown at 26 °C. Promastigotes in logarithmic growth were seeded in 96-well flat-bottom plates at a volume of 100 μL of culture per well and incubated for 48 h. Promastigotes for macrophage infection (M/CAN/ES/96/BCN150 zymodeme MON-1) were maintained at 26 °C in Schneider’s insect medium (Lonza, Basel, Switzerland) supplemented with 10% FBS and 100 U/mL penicillin and 100 μg/mL streptomycin (Lonza, Basel, Switzerland) (Pen-Strep). Promastigotes in the stationary phase of growth (5–6 days) were washed twice in phosphate-buffered saline at 2700× g for 10 min at 22 °C and employed for macrophage infection.
EOs and pure compounds were solved in DMSO (Sigma, Madrid, Spain) (<1% final concentration). […] Trophozoites/promastigotes viability was assessed using the modified MTT colorimetric assay, as described previously in the literature, with results further validated by microscopic examination. The plate was analyzed in a spectrophotometer at a wavelength of 570 nm. The percentage of antiparasitic activity was calculated as growth inhibition, using the following formula: % AT = 100 − [(Ap − Ab) ÷ (Ac − Ab)] × 100, where Ap is the absorbance of the tested product, Ab the absorbance of the blank and Ac the absorbance of the control wells (culture without treatment).
Pure compounds were tested using the same method, although at concentrations of 100, 75, 50, 25, 10, and 1 μg/mL. Metronidazole (Acros Organics, Madrid, Spain) served as a reference compound for anti-Giardia activity and Anti-Trichomonas activity and amphotericin B for anti-Leishmania activity.
Data was analyzed using STATGRAPHICS Centurion XIX (https://www.statgraphics.com) (Statgraphics Technologies, Inc., The Plains, VA, USA). The mammalian cells and trophozoites viability were tested with each compound in a dose–response experiment to calculate their relative potency (CC50 or IC50 value, respectively). IC50 (μg/mL) expresses the dose of EOs, extracts or pure compounds needed to produce 50% mortality of trophozoites, while CC50 (μg/mL) expresses the dose of compounds necessary to produce 50% mortality of Vero cells.

[2] = test system: L. infantum promastigotes; test: Morphological evaluation by light microscopy (Diff-Quik), L. infantum; format: cell-based, Leishmania infantum; conditions: germacrone 100 µg/mL
Experimental: L. infantum, T. gallinae and G. duodenalis were studied at 0, and 48 h after treatment with germacrone (100 µg/mL), and controls (DMSO 1%, metronidazole at 10 µg/mL for T. gallinae and G. duodenalis and amphotericin B at 1 µg/mL for L. infantum).
For L. infantum and T. gallinae, cultures in the exponential growth phase (10^7 promastigotes/mL and 5 × 10^5 trophozoites/mL, respectively) were treated in 96-well microplates. At each time point, quadruplicates were assigned per condition: growth control, germacrone, and the corresponding positive control (metronidazole or amphotericin B). For microscopy, quadruplicate wells corresponding to the same condition/time point were pooled prior to centrifugation to obtain sufficient biomass and a representative pellet for smear preparation. Pooled samples per condition/time point were centrifuged, resuspended in FBS and spread onto microscope slides. Once dried, samples were fixed and stained with Diff-Quik (Medion Diagnostic AG, Düdingen, Switzerland) following the manufacturer’s instructions. Additionally, three wells per condition (triplicates) were used for the MTT assay, with absorbance measured by spectrophotometry after 48 h.
Morphological changes were analyzed using light microscopy. Experiments were performed as independent biological replicates on different plates, and one Diff-Quik stained smear was obtained per condition and time point per biological replicate. For morphometric analysis, a total of 30 trophozoites per condition and time point were measured across the independent biological replicates and were selected by consecutive sampling during a predefined serpentine (zig-zag) scan across the preparation. Up to two eligible trophozoites per field (intact, well-focused and non-overlapping) were measured in sequential fields until n = 30 was reached, avoiding subjective selection of “representative” cells. Overlapping, partially visible, out-of-focus, edge-of-field, or debris-obscured trophozoites were excluded a priori. Trophozoites were photographed using a researcher’s mobile phone mounted to the microscope ocular. Calibration was performed at the same magnification using a stage micrometre and applied in ImageJ v. 1.54d. One Diff-Quik stained smear was obtained per condition/time point per biological replicate Cell length, cell width, cell surface, nuclear length, nuclear width, axoneme (only Giardia), and length of axostyle (only T. gallinae) were measured with ImageJ software, and the data were recorded in an Excel database for statistical analysis.
The Shapiro–Wilk test was used to assess the normality of the morphological variables. When data followed a normal distribution, Student’s t-test was applied; otherwise, non-parametric tests, such as the Mann–Whitney U test, was used. Values of p < 0.05 were considered significant. For the morphological analysis, the mean, standard deviation, median, and interquartile range were calculated using SPSS version 20 (IBM Corp., Armonk, NY, USA).

[3] = Cytotoxicity of germacrone on DH82 macrophages (MTT); format: cell-based, canine; conditions: dog, DH82 macrophages; 48 h treatment; MTT; R^2 98.4
Experimental: (§1) Canine DH82 (ATCC®-CRL-10389TM) macrophages were maintained in Dulbecco’s modified Eagle’s medium (DMEM) (Thermo Fisher Scientific, Waltham, MA, USA) supplemented with 10% heat-inactivated FBS (Thermo Fisher Scientific, Waltham, MA, USA), and Pen-Strep at 37 °C in 5% CO2.
(§2) DH82 canine macrophages (5 × 10^4 per well) were seeded in 96-well plates in DMEM and kept overnight at 37 °C and 5% CO2. After washing with PBS, germacrone was added in varying concentrations (10, 50 and 100 μg/mL). After 48 h of treatment, cell viability was determined by the MTT method using a spectrophotometer (Multiskan EX, Thermo Electron Corporation, Vantaa, Finland) at 570 nm. The results were expressed as the cytotoxic concentration of 50% of the cell population (CC50). Amphotericin B (Gibco, Thermo Fisher Scientific, Grand Island, NY, USA) at 1 μg/mL was used as the reference drug. The assays were performed in two independent experiments, each in quadruplicate.

DH82 canine macrophages = test: as above; format: cell-based; conditions: at concentrations of 50 and 100 μg/mL
Experimental: as §1, §2

CC(C)=C1C/C=C(\C)CC/C=C(\C)CC1=O [Compound 2, germacrone]
IC50 [1]: 37.5 µg/mL (≈ 172 µM) | cell length vs control ([2]; 0.5 and 48 h, control DMSO 1%): initial increase at 0.5 h but subsequently decreased at 48 h | cell surface area vs control ([2]; 0.5 and 48 h, control DMSO 1%): transiently increased at 0.5 h with no significant changes detected at 48 h | cell width vs control ([2]; 0.5 and 48 h, control DMSO 1%): increased significantly at both 0.5 and 48 h | morphological changes (light microscopy) ([2]; 48 h of exposure, Diff-Quik): less pronounced | CC50 at 48 h [3]: 12.9 µg/mL (≈ 59.1 µM) | effect on canine macrophages (DH82 canine macrophages): lethal
